Measured values as given in ChEMBL document CHEMBL1201862, “PubChem BioAssay data set” (2004).
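These data come from cells grown in 96-well plates and exposed to compound for 48 hours at five concentrations. At the GI50, growth is halved.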 Activity calls are given as the source filed them. No stated cut-off is given here; in the data, active = GI50 up to about 1.1 µM and inactive = higher.

Experiments:
Test in all cases: DTP human tumour cell line panel, 48 h
[1] = system: 786-0
[2] = system: A498
[3] = system: BT-549
[4] = system: DU-145
[5] = system: EKVX
[6] = system: HCT-15
[7] = system: LOX IMVI
[8] = system: M14
[9] = system: MCF7
[10] = system: MOLT-4
[11] = system: OVCAR-4
[12] = system: SF-268
[13] = system: SK-MEL-2
[14] = system: SNB-75
[15] = system: SR
[16] = system: HL-60
[17] = system: UACC-62

| SMILES | GI50 [1] | GI50 [2] | GI50 [3] | GI50 [4] | GI50 [5] | GI50 [6] [µM] | GI50 [7] | GI50 [8] | GI50 [9] | GI50 [10] | GI50 [11] | GI50 [12] | GI50 [13] | GI50 [14] | GI50 [15] | GI50 [16] | GI50 [17] |
| --- | --- | --- | --- | --- | --- | --- | --- | --- | --- | --- | --- | --- | --- | --- | --- | --- | --- |
| COc1cccc(/N=N/C(=N\NC(=O)c2ccc(C)cc2)c2ccc(N(CCC#N)CCC#N)cc2C)c1 | > 100 µM (inactive) | 44.3 µM (inactive) | 71 µM (inactive) | > 100 µM (inactive) | 66.5 µM (inactive) | > 100 | > 100 µM (inactive) | > 100 µM (inactive) | 32.1 µM (inactive) | > 100 µM (inactive) | 25.1 µM (inactive) | > 100 µM (inactive) | > 100 µM (inactive) | 53.1 µM (inactive) | 61.1 µM (inactive) | – | – |
| C=C1CC(C)(c2cccc(Nc3nc4ccccc4c4occc34)c2)OC1=O (centres undefined) | 1.67 µM (inactive) | 17.7 µM (inactive) | 4.85 µM (inactive) | 5.6 µM (inactive) | 14.7 µM (inactive) | 3.52 | 1.99 µM (inactive) | 2.84 µM (inactive) | 3.71 µM (inactive) | 10.6 µM (inactive) | 7.89 µM (inactive) | 10.5 µM (inactive) | – | 5.58 µM (inactive) | – | 2.27 µM (inactive) | 0.65 µM (active) |
| O=[N+]([O-])c1ccc2nc3ccccc3cc2c1 | 2.38 µM (inactive) | 1.5 µM (inactive) | 4.05 µM (inactive) | 2.82 µM (inactive) | 5.31 µM (inactive) | 1.37 | 2.04 µM (inactive) | 3.33 µM (inactive) | 2.39 µM (inactive) | < 0.01 µM (active) | 2.48 µM (inactive) | 6.44 µM (inactive) | 4.73 µM (inactive) | 3.7 µM (inactive) | – | – | 1.19 µM (inactive) |
| CC(NC(=O)OCc1ccccc1)NC(=O)C(CC(=O)OC(C)(C)C)NC(=O)OC(C)(C)C (centres undefined) | > 100 µM (inactive) | > 100 µM (inactive) | > 100 µM (inactive) | > 100 µM (inactive) | > 100 µM (inactive) | > 100 | > 100 µM (inactive) | > 100 µM (inactive) | > 100 µM (inactive) | > 100 µM (inactive) | > 100 µM (inactive) | 98.4 µM (inactive) | > 100 µM (inactive) | > 100 µM (inactive) | – | – | > 100 µM (inactive) |
| CCOC(=O)c1[nH]c2nc(SC)nc(NC)c2c1N | > 100 µM (inactive) | > 100 µM (inactive) | > 100 µM (inactive) | > 100 µM (inactive) | – | 84.1 | 43.2 µM (inactive) | 92.7 µM (inactive) | – | 68.2 µM (inactive) | > 100 µM (inactive) | > 100 µM (inactive) | > 100 µM (inactive) | 70.5 µM (inactive) | – | – | 85.7 µM (inactive) |
| O=C(Nc1ccccc1)c1nn(-c2cc(S(=O)(=O)O)c([N+](=O)[O-])cc2Cl)[n+](-c2cc(S(=O)(=O)[O-])c([N+](=O)[O-])cc2Cl)n1 | > 100 µM (inactive) | – | – | > 100 µM (inactive) | > 100 µM (inactive) | > 100 | 38.3 µM (inactive) | > 100 µM (inactive) | > 100 µM (inactive) | > 100 µM (inactive) | > 100 µM (inactive) | > 100 µM (inactive) | > 100 µM (inactive) | > 100 µM (inactive) | > 100 µM (inactive) | 40.8 µM (inactive) | > 100 µM (inactive) |
| CC(C)C1=CC23CCC4C(C)(C(=O)O)CCCC4(C)C2CC1C1C(=O)N(c2cccc(N4C(=O)C5C6CC7C8(C)CCCC(C)(C(=O)O)C8CCC7(C=C6C(C)C)C5C4=O)c2)C(=O)C13 (centres undefined) | 32 µM (inactive) | 13.4 µM (inactive) | – | 10.8 µM (inactive) | 6.46 µM (inactive) | 11.4 | – | 11.6 µM (inactive) | 4.38 µM (inactive) | 11.1 µM (inactive) | 24 µM (inactive) | 12 µM (inactive) | 15.7 µM (inactive) | – | 9.55 µM (inactive) | 9.79 µM (inactive) | 16.5 µM (inactive) |
| NC1=NC(=O)[C@H](Cc2c[nH]c3ccccc23)N1C(=O)OCc1ccccc1 | > 100 µM (inactive) | 61 µM (inactive) | 38.5 µM (inactive) | 93.8 µM (inactive) | 45.3 µM (inactive) | > 100 | 68.5 µM (inactive) | – | 81.8 µM (inactive) | 28.7 µM (inactive) | 51.8 µM (inactive) | 73.8 µM (inactive) | > 100 µM (inactive) | 50.9 µM (inactive) | – | 31.7 µM (inactive) | 53.8 µM (inactive) |
| C/C(=N\NC(=O)c1ccncc1)c1ccccc1F | > 10 µM (inactive) | > 10 µM (inactive) | – | – | – | > 10 | > 10 µM (inactive) | > 10 µM (inactive) | > 10 µM (inactive) | > 10 µM (inactive) | – | > 10 µM (inactive) | > 10 µM (inactive) | > 10 µM (inactive) | > 10 µM (inactive) | > 10 µM (inactive) | – |
| CC(C)(Sc1cc(C(C)(C)C)c(O)c(C(C)(C)C)c1)Sc1cc(C(C)(C)C)c(O)c(C(C)(C)C)c1 [PROBUCOL] | > 100 µM (inactive) | > 100 µM (inactive) | > 100 µM (inactive) | > 100 µM (inactive) | 4.57 µM (inactive) | > 100 | > 100 µM (inactive) | > 100 µM (inactive) | > 100 µM (inactive) | – | > 100 µM (inactive) | 52.8 µM (inactive) | > 100 µM (inactive) | > 100 µM (inactive) | – | 1.49 µM (inactive) | > 100 µM (inactive) |
